Laboratory results from patent publication US20230172984A1, “CLEARANCE OF SENESCENT CELLS BY ACTIVATION OF iNKT CELLS” (THE REGENTS OF THE UNIVERSITY OF CALIFORNIA, priority 2020, published 2023).

Test system: Cdkn2a^Ink4a, Ccl2, Serpine1 mRNA
Assay: Bleomycin-induced lung injury model, qRT-PCR of senescence and SASP markers in CD45-depleted lung cells
Format: in vivo, mouse
Conditions: bleomycin-injured mice, GalCer day 10, harvest day 14; FIG. 4B
Method: MATERIALS AND METHODS. Mouse husbandry. All procedures involving mice were performed according to the IACUC standards following ethics approval by the animal committee at the University of California, San Francisco. Male C57BL6/J on chow or HFD fed mice. HFD mice were fed a high-fat diet (60% kcal from fat) from 6 weeks until 22 weeks of age. All experiments on HFD mice were performed at 22-24 weeks total age (16-18 weeks on HFD). Age-matched male C57BL6/J mice on standard rodent chow diet were used as controls. For the lung injury model, 10-week-old male C57BL/6J mice were used. The animals were divided into three groups: the control group, the injured group, and the α-GalCer treated group. The animals in the control group received vehicle only (i.p.) on day 10. The injured group animals received bleomycin (3 U/kg) via the intratracheal route at the start of the experiment (day 0). The animals in the α-GalCer treated groups received bleomycin (3 U/kg) on day 0, and i.p. injection of α-GalCer (2 μg/mouse) on day 10. […] RNA extraction and Quantitative reverse transcriptase PCR.RNA was extracted with RNA extraction reagent using the commercial total RNA micro-prep kit according to the product instructions. Total RNA was quantified by nanovolume photospectrometer and fluorometer. […] Quantification was performed using with the delta-delta CT method, using Cyclophilin A (Ppia) as a housekeeping gene.

## CCCCCCCCCCCCCCCCCCCCCCCCCC(=O)N[C@@H](CO[C@H]1O[C@H](CO)[C@H](O)[C@H](O)[C@H]1O)[C@H](O)[C@H](O)CCCCCCCCCCCCCC [GalCer, alpha-Galactosylceramide]
  mRNA levels of senescence (Cdkn2a^Ink4a) and SASP (Ccl2, Serpine1) markers in CD45^− lung cells: reduced mRNA levels of these marker genes
